# Test results taken from PubChem BioAssay (NCI).
#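 Step 1: Grow cells in 96-well plates. Step 2: Expose to compound for 48 hours at 5 concentrations. Step 3: Interpolate endpoints linearly; if unreached, use highest concentration. GI50 = concentration required for 50% inhibition of growth. Definition used: TGI = concentration required for complete inhibition of growth.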
# Assays:
# Assay in all cases: NCI tumour cell line growth inhibition, 48 h
# NCI-H23 lung = system: NCI-H23 lung
# SF-268 CNS = system: SF-268 CNS
# RXF 393 renal = system: RXF 393 renal
# U251 CNS = system: U251 CNS
# ACHN renal = system: ACHN renal
# HOP-92 NSCLC = system: HOP-92 NSCLC
# MALME-3M melanoma = system: MALME-3M melanoma
# MCF7 breast = system: MCF7 breast
# HS 578T breast = system: HS 578T breast
# SW-620 colon = system: SW-620 colon
# SF-539 CNS = system: SF-539 CNS
# UO-31 renal = system: UO-31 renal
# NCI-H226 lung = system: NCI-H226 lung
# MDA-MB-435 = system: MDA-MB-435
# HCC-2998 colon = system: HCC-2998 colon
# SK-MEL-28 melanoma = system: SK-MEL-28 melanoma
# OVCAR-4 ovarian = system: OVCAR-4 ovarian
# EKVX NSCLC = system: EKVX NSCLC
# HOP-62 NSCLC = system: HOP-62 NSCLC
# COLO 205 colon = system: COLO 205 colon
# OVCAR-8 ovarian = system: OVCAR-8 ovarian
# SK-OV-3 ovarian = system: SK-OV-3 ovarian
# 786-0 renal = system: 786-0 renal
# NCI-H460 lung = system: NCI-H460 lung
# NCI-H522 lung = system: NCI-H522 lung
# IGROV1 ovarian = system: IGROV1 ovarian
# M14 melanoma = system: M14 melanoma
# NCI/ADR-RES ovarian = system: NCI/ADR-RES ovarian
# HCT-15 colon = system: HCT-15 colon
# SNB-75 CNS = system: SNB-75 CNS
# BT-549 breast = system: BT-549 breast
# HT29 colon = system: HT29 colon
# SF-295 CNS = system: SF-295 CNS
# CAKI-1 renal = system: CAKI-1 renal
# MDA-MB-468 breast = system: MDA-MB-468 breast
# OVCAR-3 ovarian = system: OVCAR-3 ovarian
# SN12C renal = system: SN12C renal
# SR leukemia = system: SR leukemia
# A498 renal = system: A498 renal
# OVCAR-5 ovarian = system: OVCAR-5 ovarian
# SNB-19 CNS = system: SNB-19 CNS
# LOX IMVI melanoma = system: LOX IMVI melanoma
# MDA-MB-231 breast = system: MDA-MB-231 breast
# CCRF-CEM leukemia = system: CCRF-CEM leukemia
# RPMI-8226 leukemia = system: RPMI-8226 leukemia
# DU-145 prostate = system: DU-145 prostate
# HCT-116 colon = system: HCT-116 colon
# MOLT-4 leukemia = system: MOLT-4 leukemia
# HL-60(TB) leukemia = system: HL-60(TB) leukemia
# K-562 leukemia = system: K-562 leukemia
# PC-3 prostate = system: PC-3 prostate
# A549 NSCLC = system: A549 NSCLC
# TK-10 renal = system: TK-10 renal
# T-47D breast = system: T-47D breast
# SK-MEL-5 melanoma = system: SK-MEL-5 melanoma
# UACC-257 melanoma = system: UACC-257 melanoma
# KM12 colon = system: KM12 colon
# SK-MEL-2 melanoma = system: SK-MEL-2 melanoma
# UACC-62 melanoma = system: UACC-62 melanoma
structure (smiles),measurement,setting,value
Cn1cc(-c2nnc(N)nc2-c2c[nH]c3ccccc23)c2cc(Br)cnc21,GI50,NCI-H23 lung,13.9 µM
same,TGI,NCI-H23 lung,36 µM
same,GI50,SF-268 CNS,10.7 µM
same,TGI,SF-268 CNS,27.3 µM
same,GI50,RXF 393 renal,3.37 µM
same,TGI,RXF 393 renal,20.3 µM
same,GI50,U251 CNS,10.5 µM
same,TGI,U251 CNS,23.2 µM
same,GI50,ACHN renal,5.41 µM
same,TGI,ACHN renal,19.2 µM
same,GI50,HOP-92 NSCLC,4.44 µM
same,TGI,HOP-92 NSCLC,24.1 µM
same,GI50,MALME-3M melanoma,8.27 µM
same,TGI,MALME-3M melanoma,20.7 µM
same,GI50,MCF7 breast,1.5 µM
same,TGI,MCF7 breast,15 µM
same,GI50,HS 578T breast,4.92 µM
same,TGI,HS 578T breast,32 µM
same,GI50,SW-620 colon,10 µM
same,TGI,SW-620 colon,23.3 µM
same,GI50,SF-539 CNS,10.7 µM
same,TGI,SF-539 CNS,22.6 µM
same,TGI,UO-31 renal,14.8 µM
same,GI50,NCI-H226 lung,12.2 µM
same,TGI,NCI-H226 lung,36.7 µM
same,GI50,MDA-MB-435,3.11 µM
same,TGI,MDA-MB-435,10.4 µM
same,GI50,HCC-2998 colon,10.1 µM
same,TGI,HCC-2998 colon,23.7 µM
same,GI50,SK-MEL-28 melanoma,10.9 µM
same,TGI,SK-MEL-28 melanoma,22.8 µM
same,GI50,OVCAR-4 ovarian,7.09 µM
same,TGI,OVCAR-4 ovarian,21.2 µM
same,GI50,EKVX NSCLC,13.2 µM
same,TGI,EKVX NSCLC,28.5 µM
same,GI50,HOP-62 NSCLC,9.73 µM
same,TGI,HOP-62 NSCLC,25.9 µM
same,GI50,COLO 205 colon,7.03 µM
same,TGI,COLO 205 colon,21.1 µM
same,GI50,OVCAR-8 ovarian,12.5 µM
same,TGI,OVCAR-8 ovarian,28.9 µM
same,GI50,SK-OV-3 ovarian,16.6 µM
same,TGI,SK-OV-3 ovarian,35.6 µM
same,GI50,786-0 renal,9.51 µM
same,TGI,786-0 renal,26.3 µM
same,GI50,NCI-H460 lung,5.02 µM
same,TGI,NCI-H460 lung,21 µM
same,GI50,NCI-H522 lung,3.78 µM
same,TGI,NCI-H522 lung,21.6 µM
same,GI50,IGROV1 ovarian,2.6 µM
same,TGI,IGROV1 ovarian,17.3 µM
same,GI50,M14 melanoma,10.8 µM
same,TGI,M14 melanoma,23.9 µM
same,GI50,NCI/ADR-RES ovarian,10.7 µM
same,TGI,NCI/ADR-RES ovarian,36.3 µM
same,GI50,HCT-15 colon,4.68 µM
same,TGI,HCT-15 colon,32 µM
same,GI50,SNB-75 CNS,2.7 µM
same,TGI,SNB-75 CNS,15.6 µM
same,GI50,BT-549 breast,5.94 µM
same,TGI,BT-549 breast,19.8 µM
same,GI50,HT29 colon,10 µM
same,TGI,HT29 colon,27.3 µM
same,GI50,SF-295 CNS,4.07 µM
same,TGI,SF-295 CNS,17.5 µM
same,GI50,CAKI-1 renal,10.7 µM
same,TGI,CAKI-1 renal,22.5 µM
same,GI50,MDA-MB-468 breast,2.38 µM
same,TGI,MDA-MB-468 breast,12.8 µM
same,GI50,OVCAR-3 ovarian,11.1 µM
same,TGI,OVCAR-3 ovarian,23.4 µM
same,GI50,SN12C renal,10.2 µM
same,TGI,SN12C renal,22.2 µM
same,GI50,SR leukemia,1.54 µM
same,TGI,SR leukemia,71.2 µM
same,GI50,A498 renal,12.3 µM
same,TGI,A498 renal,24.8 µM
same,GI50,OVCAR-5 ovarian,14.6 µM
same,TGI,OVCAR-5 ovarian,29.8 µM
same,GI50,SNB-19 CNS,12.2 µM
same,TGI,SNB-19 CNS,24.8 µM
same,GI50,LOX IMVI melanoma,5.19 µM
same,TGI,LOX IMVI melanoma,26.5 µM
same,GI50,MDA-MB-231 breast,7.8 µM
same,TGI,MDA-MB-231 breast,27.6 µM
same,GI50,CCRF-CEM leukemia,4.8 µM
same,TGI,CCRF-CEM leukemia,33.6 µM
same,GI50,RPMI-8226 leukemia,6.43 µM
same,TGI,RPMI-8226 leukemia,> 100 µM
same,GI50,DU-145 prostate,14.5 µM
same,TGI,DU-145 prostate,28.8 µM
same,GI50,HCT-116 colon,8.67 µM
same,TGI,HCT-116 colon,21.2 µM
same,GI50,MOLT-4 leukemia,3.37 µM
same,TGI,MOLT-4 leukemia,27.3 µM
same,GI50,HL-60(TB) leukemia,4.63 µM
same,TGI,HL-60(TB) leukemia,34.6 µM
same,GI50,K-562 leukemia,2.99 µM
same,TGI,K-562 leukemia,> 100 µM
same,GI50,PC-3 prostate,8.26 µM
same,TGI,PC-3 prostate,> 100 µM
same,GI50,A549 NSCLC,12.7 µM
same,TGI,A549 NSCLC,46.9 µM
same,GI50,TK-10 renal,12.8 µM
same,TGI,TK-10 renal,26.8 µM
same,GI50,T-47D breast,4.12 µM
same,TGI,T-47D breast,24.9 µM
same,GI50,SK-MEL-5 melanoma,6.84 µM
same,TGI,SK-MEL-5 melanoma,19.8 µM
same,GI50,UACC-257 melanoma,13.4 µM
same,TGI,UACC-257 melanoma,27.1 µM
same,GI50,KM12 colon,13.1 µM
same,TGI,KM12 colon,27.6 µM
same,GI50,SK-MEL-2 melanoma,12.3 µM
same,TGI,SK-MEL-2 melanoma,27.1 µM
same,GI50,UACC-62 melanoma,3.14 µM
same,TGI,UACC-62 melanoma,16.8 µM
